The text below walks through data of the SangsterLogP compilation.

By logD is commonly meant lipophilicity at a set pH, counting ionised and neutral species. A lower logD goes with lower lipophilicity.

This data set can be described thus: method code SF-AS, from PMID: 4730594. As to conditions: pH 7.0.
`O=[N+]([O-])c1cc2ccccc2[n+]([O-])c1` yielded a logD of 0.56.

With `CC(C)(C)c1ccc2c(c1)c([N+](=O)[O-])cc[n+]2[O-]`, the pH-dependent lipophilicity (logD) was 1.51.

`O=[N+]([O-])c1cc[n+]([O-])c2ccc(Cl)cc12` showed a logD of 1.41.

For `O/N=c1/ccn(O)c2ccccc12`, the logD is 0.

With `Cc1cc([N+](=O)[O-])c2ccccc2[n+]1[O-]`, the log distribution coefficient (logD) stood at 1.25.

Compound `O=[N+]([O-])c1cccc2c1ccc[n+]2[O-]` gave a pH-dependent lipophilicity (logD) of 0.49.

`Cc1ccc2c(c1)c([N+](=O)[O-])cc[n+]2[O-]` registered a logD of 1.43.

The compound `Cc1cccc2c1c([N+](=O)[O-])cc[n+]2[O-]` showed a pH-dependent lipophilicity (logD) of 1.36.

In the case of `O=[N+]([O-])c1cccc2c1c([N+](=O)[O-])cc[n+]2[O-]`, the logD turned out to be 0.95.

Consider `Cc1ccc2c([N+](=O)[O-])cc[n+]([O-])c2c1`, for which the logD came out at 1.42.

For the compound `CC(=O)ONc1ccnc2ccccc12`, the logD amounted to 0.97.

On to `O=[N+]([O-])c1cc[n+]([O-])c2ccccc12`, for which the logD was 1.02.

`Cc1c[n+]([O-])c2ccccc2c1[N+](=O)[O-]`: the logD worked out at 1.06.

Turning to `CC(=O)ON=c1ccn(OC(C)=O)c2ccccc12`, the logD was 1.04.

Compound `Cc1cccc2c([N+](=O)[O-])cc[n+]([O-])c12` registered a logD of 1.59.

Regarding `O=[N+]([O-])c1cccc2ccc[n+]([O-])c12`, the log distribution coefficient (logD) was determined as 0.04.

`O=[N+]([O-])c1ccc2c(ccc[n+]2[O-])c1` came in with a pH-dependent lipophilicity (logD) of 0.39.

For the compound `CCCCc1ccc2c(c1)c([N+](=O)[O-])cc[n+]2[O-]`, the pH-dependent lipophilicity (logD) stood at 2.08.

For `[O-][n+]1ccc(Cl)c2ccccc21`, the logD stood at 1.08.

`O=[N+]([O-])c1cc[n+]([O-])c2c([N+](=O)[O-])cccc12` yielded a logD of 0.76.

The compound `O=[N+]([O-])c1cc[n+]([O-])c2c(F)cccc12` yielded a logD of 1.

The compound `O=c1ccn(O)c2ccccc12` registered a logD of -0.47.

For `NC(=O)Cc1cc[n+]([O-])c2ccccc12`, the pH-dependent lipophilicity (logD) is -0.11.

With `O=[N+]([O-])c1ccc2ccc[n+]([O-])c2c1`, the logD is 0.36.

As to `O=[N+]([O-])c1c(Cl)c[n+]([O-])c2ccccc12`, the pH-dependent lipophilicity (logD) was 1.33.

Regarding `CS(=O)(=O)c1cc[n+]([O-])c2ccccc12`, the logD is 0.12.

For `O=[N+]([O-])c1ccc2c(c1)c([N+](=O)[O-])cc[n+]2[O-]`, the pH-dependent lipophilicity (logD) was 0.9.
